Laboratory results published in paper PMC11017246, “Discovery of GLPG2737, a Potent Type 2 Corrector of CFTR for the Treatment of Cystic Fibrosis in Combination with a Potentiator and a Type 1 Co-corrector” (Journal of Medicinal Chemistry, 2024).
pEC50, pIC50: −log10 of the molar value. Blank lines part the entries; values can stand above or below the compound they belong to.

Experiments:
[1] = Plasma protein binding, rat; type: in vitro ADME; settings: pH 7.4, read-out: PPB % rat (converted)
Description: (§1) Plasma protein binding was determined by equilibrium dialysis using the Pierce Red Device plate with inserts (ThermoScientific). Test compound at 5 μM (0.5% DMSO) spiked in freshly thawed human, rat, mouse, or dog plasma (Bioreclamation INC, Westbury, NY, USA) was dialyzed against phosphate-buffered saline (PBS, pH 7.4) at 37 °C under shaking for 4 h. Aliquots were taken from each side of the well, and matrix matched. Proteins were precipitated with an excess of acetonitrile, samples were mixed and centrifuged, and the supernatant was analyzed by liquid chromatography–mass spectrometry/mass spectrometry (LC–MS/MS). Addition of compound peak areas in the buffer chamber and the plasma chamber was considered to be 100% compound.

[2] = Plasma protein binding, human; type: in vitro ADME; settings: human, plasma, pH 7.4, human plasma; read-out: PPB % human (converted)
Description: as §1

PK rat = type: in vivo
Description: These studies were performed with naïve male Sprague–Dawley rats (Janvier France, 6–8 weeks old). Rats were dosed iv via a bolus in the tail vein with a dose level of 0.1 mg/kg or orally as a single esophageal gavage with a dose level of 5 mg/kg. For the iv route, the compound was formulated in PEG200/water (60/40; v/v). For the oral route, the compound was formulated in MC 0.5% (2/98) as a homogeneous suspension. Before the oral dosing, the animals were deprived of food for at least 12 h before compound administration until 3 h after administration. All animals had free access to the tap water. Blood samples were collected under light anesthesia and placed into tubes containing Li-heparin as an anticoagulant. Blood samples were collected up to 24 h after dosing (n = 3 rats per route). After centrifugation, the resulting plasma samples were assayed by LC-MS/MS with a nongood laboratory practice (non-GLP)-validated method. PK parameters were calculated by noncompartmental analysis using WinNonlin software (Certara, Princeton, NJ, USA).

CYP3A4 = CYP3A4 induction (mRNA) in human hepatocytes; type: in vitro ADME; settings: for CYP (3A4) mRNA induction, result in words: compared with positive control rifampicin
Description: Cryopreserved human hepatocytes from a single donor were seeded at 0.1 × 10^6 cells/well. The next day, cells were dosed with test compound in assay medium (final test compound concentration 10 μM; final DMSO concentration 0.1%). Positive control inducer, rifampicin, for CYP3A4, was incubated alongside the test compound. Negative control wells were included where the test compound is replaced by vehicle solvent (0.1% DMSO in assay medium). Each test or control compound was dosed in triplicate at a single concentration (10 μM). The cells were exposed to the solutions for 72 h with fresh solution added every 24 h. For mRNA assessment, all media was removed from each of the wells, and the cells were washed once. The cells were lysed, and total RNA was then isolated from the hepatocyte lysates. Reverse transcription was performed, and quantitative PCR analysis was performed on the resulting cDNA, using gene-specific primer probe sets for CYP3A4 target cDNA and endogenous control. Samples were analyzed using an ABI 7900 HT real time PCR system. For mRNA assessment, relative fold mRNA expression was determined based on the threshold cycle (CT) data of target gene relative to endogenous control for each reaction and normalized to negative control using the 2-ΔΔCT method. Data were expressed as fold activation relative to the vehicle control and, as a percent, to the 10 μM rifampicin using the following formula: % of positive control = ((fold increase of the cpd relative to vehicle control – 1)/(fold increase of the rifampicin at 10 μM – 1)) × 100.

CYP2C9 = target: T1, CYP2C9 (Homo sapiens, UniProt P11712); assay: CYP reversible inhibition in HLM, CYP2C9; type: in vitro ADME; settings: probe not given; read-out: CYP inhibition IC50, 2C9
T1 construct: tissue BD Gentest; host or cells: human liver microsomes
T1 sequence (P11712 whole entry): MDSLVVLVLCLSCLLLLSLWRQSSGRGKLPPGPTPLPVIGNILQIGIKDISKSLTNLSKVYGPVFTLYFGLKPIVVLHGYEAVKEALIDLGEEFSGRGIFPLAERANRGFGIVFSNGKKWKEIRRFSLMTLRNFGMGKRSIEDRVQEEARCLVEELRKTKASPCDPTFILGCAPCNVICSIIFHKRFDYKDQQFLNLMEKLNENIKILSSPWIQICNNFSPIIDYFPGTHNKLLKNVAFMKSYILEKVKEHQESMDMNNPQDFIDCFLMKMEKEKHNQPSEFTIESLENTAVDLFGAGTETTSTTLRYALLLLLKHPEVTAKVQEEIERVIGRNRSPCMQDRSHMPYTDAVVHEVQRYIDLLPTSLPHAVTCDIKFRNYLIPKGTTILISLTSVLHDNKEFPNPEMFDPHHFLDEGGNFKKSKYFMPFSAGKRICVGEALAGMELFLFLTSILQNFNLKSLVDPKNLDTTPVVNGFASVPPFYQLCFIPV
Description: (§2) Test compounds were diluted in methanol and then added to mixture containing 50 mM potassium phosphate buffer, pH 7.4, human liver microsomes (BD Gentest) and probe substrate. After prewarming for 5 min at 37 °C, the reaction was started by adding cofactor mix (7.65 mg/mL glucose-6-phosphate, 1.7 mg/mL NADP, 6 U/mL of glucose-6-phosphate dehydrogenase), resulting in seven final concentrations of test compounds in the range 0.14–100 μM (2% methanol). Isoform specific conditions regarding probe substrate and microsomal protein concentrations are available in Table 2. Final concentrations of cofactor mix components were as follows: 1.56 mg/mL glucose-6-phosphate, 0.34 mg/mL NADP, and 1.2 U/mL glucose-6-phosphate dehydrogenase. After incubation at 37 °C, the reaction was terminated with acetonitrile:methanol (2:1) solution with internal standard. Samples were centrifuged, and the supernatant fractions were analyzed by LC-MS/MS. The instrument responses (test compounds and internal standard peak areas) were referenced to those for solvent controls (assumed as 100%) in order to determine the percentage reduction in probe metabolism. Percent of control activity vs concentration plots were generated and fitted using GraphPad Prism software to generate IC50.

[3] = system: cytochrome P450 subtypes except 2C9; assay: CYP inhibition, all subtypes except 2C9; type: in vitro ADME; settings: human, liver microsomes, pH 7.4
Description: as §2

CYP3A4 enzyme = CYP3A4 enzyme (Homo sapiens, UniProt P08684); assay: Mechanism-based inactivation of CYP3A4; type: in vitro ADME
Chain of CYP3A4 enzyme (P08684 whole entry): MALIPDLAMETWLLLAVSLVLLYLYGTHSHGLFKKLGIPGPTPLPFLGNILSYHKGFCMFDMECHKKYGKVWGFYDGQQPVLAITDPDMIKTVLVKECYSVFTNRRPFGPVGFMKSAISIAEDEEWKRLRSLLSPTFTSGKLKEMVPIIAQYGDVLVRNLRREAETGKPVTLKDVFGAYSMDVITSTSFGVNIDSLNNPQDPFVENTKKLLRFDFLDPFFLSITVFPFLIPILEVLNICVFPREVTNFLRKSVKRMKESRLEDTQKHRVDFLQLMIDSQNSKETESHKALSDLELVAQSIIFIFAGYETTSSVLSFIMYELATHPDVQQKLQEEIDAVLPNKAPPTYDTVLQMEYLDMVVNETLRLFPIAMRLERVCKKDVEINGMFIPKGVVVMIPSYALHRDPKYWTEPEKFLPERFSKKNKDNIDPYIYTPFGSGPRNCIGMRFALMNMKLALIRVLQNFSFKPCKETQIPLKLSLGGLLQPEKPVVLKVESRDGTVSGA

ΔF508 CFTR = target: T2, ΔF508 CFTR (Homo sapiens, UniProt P13569, DEL508-508); assay: TECC (transepithelial clamp circuit) in primary CF-derived HBE cells; type: cell-based
T2 construct: host or cells: CFBE41o- TetON cells, expression induced with doxycycline
T2 sequence (P13569 with tags, fused parts or gaps DEL508-508): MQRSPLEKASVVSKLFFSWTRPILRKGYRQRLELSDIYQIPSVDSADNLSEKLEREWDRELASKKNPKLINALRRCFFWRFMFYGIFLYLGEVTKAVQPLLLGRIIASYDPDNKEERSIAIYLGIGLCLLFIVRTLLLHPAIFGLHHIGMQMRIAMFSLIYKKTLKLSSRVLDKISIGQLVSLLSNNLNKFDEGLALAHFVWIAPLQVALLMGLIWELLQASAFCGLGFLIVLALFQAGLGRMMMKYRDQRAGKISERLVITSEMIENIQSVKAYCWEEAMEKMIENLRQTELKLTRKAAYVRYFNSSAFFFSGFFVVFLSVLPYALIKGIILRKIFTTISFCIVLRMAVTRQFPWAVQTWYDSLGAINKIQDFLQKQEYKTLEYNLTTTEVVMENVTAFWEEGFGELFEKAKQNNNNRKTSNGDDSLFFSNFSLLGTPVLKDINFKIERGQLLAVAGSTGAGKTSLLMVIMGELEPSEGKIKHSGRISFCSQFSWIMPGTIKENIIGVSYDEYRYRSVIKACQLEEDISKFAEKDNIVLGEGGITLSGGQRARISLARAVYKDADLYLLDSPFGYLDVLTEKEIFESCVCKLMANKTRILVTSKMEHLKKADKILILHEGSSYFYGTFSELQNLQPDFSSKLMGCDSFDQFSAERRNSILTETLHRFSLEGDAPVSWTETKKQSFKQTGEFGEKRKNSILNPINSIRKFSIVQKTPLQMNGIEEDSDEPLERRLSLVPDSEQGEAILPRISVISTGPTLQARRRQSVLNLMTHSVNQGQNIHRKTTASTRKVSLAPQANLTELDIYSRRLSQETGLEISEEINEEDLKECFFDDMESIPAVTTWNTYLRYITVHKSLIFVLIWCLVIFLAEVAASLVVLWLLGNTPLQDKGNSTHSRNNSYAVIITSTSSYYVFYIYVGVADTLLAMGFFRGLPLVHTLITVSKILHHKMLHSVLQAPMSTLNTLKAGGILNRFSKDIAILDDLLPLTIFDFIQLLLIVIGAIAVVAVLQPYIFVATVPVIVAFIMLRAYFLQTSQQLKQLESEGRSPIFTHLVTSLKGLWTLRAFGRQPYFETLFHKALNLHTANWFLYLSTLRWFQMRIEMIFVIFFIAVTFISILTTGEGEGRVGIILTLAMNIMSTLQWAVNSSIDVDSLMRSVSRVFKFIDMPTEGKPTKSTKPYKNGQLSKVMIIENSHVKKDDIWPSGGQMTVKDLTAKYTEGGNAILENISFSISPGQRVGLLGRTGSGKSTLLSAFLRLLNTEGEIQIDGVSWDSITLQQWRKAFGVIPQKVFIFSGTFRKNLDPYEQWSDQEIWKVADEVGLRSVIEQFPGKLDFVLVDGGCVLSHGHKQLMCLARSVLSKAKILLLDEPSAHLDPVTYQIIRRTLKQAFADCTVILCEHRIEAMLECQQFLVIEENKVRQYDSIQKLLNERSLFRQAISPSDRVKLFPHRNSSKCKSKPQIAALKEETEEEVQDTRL
Description: Bronchial epithelial cells isolated from the lungs of patients with CF homozygous for the ΔF508 CFTR mutation were obtained from McGill University (Montreal, QC, Canada) or the University of North Carolina (Chapel Hill, NC, United States). Cells were isolated from lungs obtained from donors undergoing planned transplantation. These primary cells were cultured directly on type IV collagen-coated polycarbonate Transwell supports with a diameter of 6.5 mm and pore size of 0.4 μm (Costar, #3397) for 18–25 days in an air–liquid interface, essentially as previously described for TECC.[23]
Twenty-four hours prior to the electrophysiological recording, corrector and/or potentiator compounds were added on both the apical and basolateral sides. TECC recordings were performed by using the TECC instrument developed and sold by EP Design (Bertem, Belgium). During the recording, the epithelial cells were bathed in a NaCl-Ringer solution (120 mM NaCl, 20 mM HEPES, 1.2 mM CaCl2, 1.2 mM MgCl2, 0.8 mM KH2PO4, 0.8 mM K2HPO4, 5 mM glucose, pH 7.4) on both the basolateral (640 μL) and the apical (160 μL) sides and kept at 37 °C. Corrector and potentiator compounds were readded at the same concentration used during the 24 h pretreatment. Apical amiloride was used to inhibit the endogenous ENaC currents (100 μM), while forskolin (10 μM) was applied on both the apical and basolateral sides to stimulate CFTR. Measurements were done during a 20 min time frame with recordings every 2 min. The transepithelial potential and transepithelial resistance were measured in an open circuit and transformed to Ieq using Ohm’s law. The maximal increase in Ieq (ΔIeq, the difference in current before and after forskolin or potentiator treatment) was used as a measure for the increased CFTR activity. EC50 values were generated by measuring the impact of different concentrations of compounds on ΔIeq in primary cells. For this purpose, each transwell was treated with a different compound concentration. CFTRInh-172 was added apically at 10 μM to assess the specificity of the response. Dose response data was fitted using a 3-parameter hill function of the form Response = Bottom + (Top – Bottom)/(1 + (EC50/concentration)) to determine EC50 values. Percentage efficacy was calculated using the following formula: (max response – neg control)/(C1 response – neg control).

[4] = Plasma protein binding, dog; type: in vitro ADME; settings: dog, plasma, pH 7.4, dog plasma; read-out: PPB % dog (converted)
Description: as §1

PK dog = type: in vivo; settings: iv
Description: These studies were performed with non-naïve male Beagle dogs (age 13.8 months old, origin: Marshall US, North Rose, NY 14516, USA; age 15.8 months old, origin: Harlan; age 17.7 months old, origin: Harlan). Dogs (n = 3) were dosed iv via a 10 min infusion via a catheter with a dose level of 1 mg/kg. After a washout of 3 days, they were dosed orally as a single gavage with a dose level of 5 or 1 mg/kg in PEG400/MC 0.5% or MC 0.5%. Before administration by the po route, animals were fasted for a period of at least 12 h before treatment, and food was given just after the 3 h of blood sampling. All animals had free access to tap water. Blood samples were taken without an anesthetic from a jugular or cephalic vein into tubes containing lithium heparin as an anticoagulant. Blood samples were taken up to 24 h after the start of the infusion. After centrifugation, the resulting plasma samples were assayed by LC-MS/MS with a nongood laboratory practice (non-GLP)-validated method. PK parameters were calculated by noncompartmental analysis using WinNonlin software (Certara, Princeton, NJ, USA).

fraction unbound at 4 h, 5 μM [1]: 0.0003
fraction unbound at 4 h, 5 μM [2]: 0.0035
clearance (PK rat; male, Sprague-Dawley, plasma, 1 mg/kg, iv dosing, read-out: plasma clearance (converted)): 0.41 mL/min/kg
bioavailability at 24 h (PK rat; male, Sprague-Dawley, plasma, 5 mg/kg po): 63.4%
clearance (PK rat; male, Sprague-Dawley, plasma, iv, 0.1 mg/kg, formula-strings file, unit inferred, read-out: Cl (converted)): 0.41 mL/min/kg
Vd (PK rat; male, Sprague-Dawley, plasma, iv, 0.1 mg/kg, formula-strings file, unit inferred, read-out: Vss): 0.195 L/kg
Vd (PK rat; male, Sprague-Dawley, plasma, iv, 1 mg/kg, 1 mg/kg iv, read-out: Vss): 0.2 L/kg
CYP (3A4) mRNA induction, result in words (CYP3A4): low CYP3A4 induction
pIC50 (CYP2C9): 6.73
pIC50 [3]: ≤ 4.30
mechanism-based inactivation of CYP3A4 (CYP3A4 enzyme): devoid of mechanism-based inactivation
SMILES: CS(=O)(=O)NC(=O)c1cc(-c2ccc(N3CCC(C#N)CC3)nc2)c2c(C3CCC3)nn(-c3ccccc3)c2n1 [Compound 45]

shift of the potentiator activity (ΔF508 CFTR; GLPG1837 potency in triple combination): 1 log unit
Emax (ΔF508 CFTR; primary ΔF508 homozygous HBE cells, 24 h incubation, with GLPG2222, read-out: TECC HBE with GLPG2222 % max activation): 534%
pEC50 (ΔF508 CFTR; primary ΔF508 homozygous HBE cells, 24 h incubation, with GLPG2222, read-out: TECC HBE with GLPG2222 EC50): 7.41
fraction unbound at 4 h, 5 μM [1]: 0.01
fraction unbound at 4 h, 5 μM [2]: 0.01
fraction unbound at 4 h, 5 μM [4]: 0.015
CLu rat (PK rat; iv, unbound clearance): 70 mL/min/kg
clearance (PK rat; male, Sprague-Dawley, plasma, 0.1 mg/kg, iv, read-out: CLp rat (converted)): 1 mL/min/kg
half-life (PK rat; male, Sprague-Dawley, plasma, 0.1 mg/kg, iv, read-out: t1/2 iv rat (converted)): 4.7 h
Vd (PK rat; male, Sprague-Dawley, plasma, iv, 0.1 mg/kg, iv, read-out: Vss rat): 0.4 L/kg
CLu dog (PK dog; unbound clearance): 8.3 mL/min/kg
clearance (PK dog; male, beagle, plasma, 1 mg/kg, read-out: CLp dog (converted)): 0.333 mL/min/kg
Vd (PK dog; male, beagle, plasma, 1 mg/kg, read-out: Vss dog): 0.2 L/kg
half-life (PK dog; male, beagle, plasma, 1 mg/kg, read-out: t1/2 iv dog (converted)): 6.6 h
CYP induction @10 μM (mRNA) % rifampicin (CYP3A4; data generated by AbbVie team): 6.7%
CYP induction @10 μM (mRNA) % rifampicin (CYP3A4; data generated by Galapagos): 12%
CYP (3A4) mRNA induction, result in words (CYP3A4): devoid of any CYP induction liability
SMILES: CS(=O)(=O)NC(=O)c1cc(N2CCC(N3CCOCC3)CC2)c2c(C3CCC3)nn(-c3ccccc3)c2n1 [Compound 49]
